Source: PubChem BioAssay (NCI)
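In this assay, cells in 96-well plates receive the compound at five concentrations for 48 hours. Endpoints are linearly interpolated between the surrounding concentrations. GI50: concentration for 50% inhibition of growth. TGI marks complete inhibition of growth.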

How the values were obtained:
Test in all cases: growth of human tumour cells (NCI), 48 h
ACHN renal = system: ACHN renal
CCRF-CEM leukemia = system: CCRF-CEM leukemia
HCC-2998 colon = system: HCC-2998 colon
HCT-116 colon = system: HCT-116 colon
IGROV1 ovarian = system: IGROV1 ovarian
MDA-MB-435 = system: MDA-MB-435
MOLT-4 leukemia = system: MOLT-4 leukemia
NCI-H460 lung = system: NCI-H460 lung
SW-620 colon = system: SW-620 colon
UO-31 renal = system: UO-31 renal

Row | SMILES | GI50 (ACHN renal) | TGI (ACHN renal) | GI50 (CCRF-CEM leukemia) | TGI (CCRF-CEM leukemia) | GI50 (HCC-2998 colon) | TGI (HCC-2998 colon) | GI50 (HCT-116 colon) | TGI (HCT-116 colon) | GI50 (IGROV1 ovarian) | TGI (IGROV1 ovarian) | GI50 (MDA-MB-435) | TGI (MDA-MB-435) | GI50 (MOLT-4 leukemia) | TGI (MOLT-4 leukemia) | GI50 (NCI-H460 lung) | TGI (NCI-H460 lung) | GI50 (SW-620 colon) | TGI (SW-620 colon) | GI50 (UO-31 renal) | TGI (UO-31 renal)
1 | NS(=O)(=O)c1cccc(N=Cc2c(O)[nH]c3ccccc23)c1 | > 23.1 µM | > 25 µM | > 25 µM | > 25 µM | > 25 µM | > 25 µM | > 25 µM | > 25 µM | > 20.2 µM | > 25 µM | > 25 µM | > 25 µM | > 25 µM | > 25 µM | > 25 µM | > 25 µM | > 25 µM | > 25 µM | > 22.7 µM | > 25 µM
2 | c1cn2cc(-c3ccc4cn[nH]c4c3)nc(Nc3ccc(N4CCOCC4)cc3)c2n1 | 11.1 µM | 32.2 µM | > 100 µM | > 100 µM | 61.6 µM | > 100 µM | 10.1 µM | 23.3 µM | 16.5 µM | 46 µM | 12.8 µM | > 100 µM | 96.9 µM | > 100 µM | 7.59 µM | 25.4 µM | 26.7 µM | > 100 µM | 14.6 µM | 34.8 µM
3 | CCN1c2ccccc2C(Cl)(c2ccc(N(C)C)cc2)c2ccccc21 | 12.4 µM | 28.4 µM | 2.34 µM | 17 µM | 10.9 µM | 23.4 µM | 2.66 µM | 10.3 µM | 2.61 µM | 7.98 µM | 3.34 µM | 14 µM | 3.27 µM | 15.2 µM | 7.77 µM | 23.4 µM | 2.9 µM | 12.1 µM | 1.91 µM | 5.27 µM
4 | CCOC(=O)/C=C/C(C(=O)/C=C/c1ccc(O)c(OC)c1)=C(O)\C=C\c1ccc(O)c(OC)c1 | 2.36 µM | 6.25 µM | 3.62 µM | > 100 µM | 1.77 µM | 3.74 µM | 1.31 µM | 3.24 µM | 11 µM | 93.8 µM | 3.29 µM | 9.31 µM | 4.27 µM | > 100 µM | 20 µM | 54.4 µM | 3.6 µM | 24.7 µM | 16.9 µM | 49.1 µM
5 | Cc1cc(Cc2cc(C)cc(C(C)(C)C)c2O)c(O)c(C(C)(C)C)c1 | 4.59 µM | 15.4 µM | 9.98 µM | > 100 µM | 4.3 µM | 15.9 µM | 3.13 µM | 11.7 µM | 5.24 µM | 16.5 µM | 7.82 µM | 22.2 µM | 6.27 µM | > 100 µM | 3.64 µM | 12 µM | 4.47 µM | 16 µM | 4.58 µM | 19 µM
6 | c1ccc(-n2nnnc2-c2cccc3ccccc23)cc1 | 0.84 µM | > 100 µM | 0.447 µM | > 100 µM | 1.12 µM | 10.3 µM | 0.401 µM | 24.5 µM | 1.56 µM | > 100 µM | 0.121 µM | 0.489 µM | 0.657 µM | > 100 µM | 0.442 µM | > 42.4 µM | 0.453 µM | > 100 µM | 2.16 µM | 61.1 µM
7 | CSc1ccc2c3c(n(C[C@H](O)CO)c(=O)c2c1)-c1ccccc1C3=O |  |  | 1.02 µM | 7.1 µM | 3.32 µM | 18 µM | 0.742 µM | 2.35 µM | 3.77 µM | 85.3 µM | 9.95 µM | > 100 µM | 0.368 µM | 2.33 µM | 0.476 µM | 2.33 µM | 0.978 µM | 43.6 µM | 1.53 µM | 8.94 µM
8 | N#CC1=C(N)NC(=O)NC12Nc1ccccc1S2 (stereo not drawn) | 32.2 µM | > 100 µM | > 42 µM | > 67.6 µM | 35.5 µM | > 100 µM | 18.5 µM | 44 µM | > 45.7 µM | > 74.8 µM | 31.7 µM | > 88.4 µM | > 48.3 µM | > 100 µM | 23.6 µM | > 70.9 µM | 28.8 µM | > 72.6 µM | 36.2 µM | > 100 µM
9 | COc1cc(/C=C2\CCC(CN(C)C)C2=O)ccc1OC(=O)c1ccccc1 (stereo not drawn) |  | 28.7 µM |  | 9.77 µM |  | 30.1 µM |  | 22.1 µM |  | 27.9 µM |  | 27.3 µM |  | 7.03 µM |  | 37.7 µM |  | 17.8 µM |  | 29.8 µM
10 | NC1=NC(c2ccc(Cl)cc2)C2=C(N1)/C(=C/c1ccc(Cl)cc1)CCC2 (stereo not drawn) | 18 µM | > 66.2 µM | 5.95 µM | > 81.5 µM | 2.11 µM | 4.27 µM | 1.67 µM | 3.22 µM | 15 µM | > 64.4 µM | 2.87 µM | 12 µM | 9.47 µM | 57 µM | 12.2 µM | 29.8 µM | 3.24 µM | 12.4 µM | 9.76 µM | 27.9 µM
11 | Cc1ccc2c(O)c(O)cc(NC(C)CCCN)c2n1 (stereo not drawn) | > 100 µM | > 100 µM | 3.73 µM | 16.8 µM | 9.11 µM | > 51.5 µM | 3.06 µM | > 40 µM | 14.2 µM | 47.7 µM | 19.4 µM | 38.3 µM | 2.6 µM | 8.99 µM | 36.4 µM | > 100 µM | 10.2 µM | 51.3 µM | 7.77 µM | 43 µM
12 | C=C1C(=O)O[C@H]2[C@H]1CC/C(COC(=O)NCCc1c[nH]c3ccc(OC)cc13)=C\CC[C@@]1(C)O[C@@H]21 | 1.38 µM | 2.72 µM | 0.64 µM | 4.36 µM | 2.34 µM | 5.64 µM | 1.46 µM | 3.11 µM | 2.08 µM | 4.7 µM | 1.8 µM | 4.06 µM | 2.22 µM | 5.88 µM | 6.49 µM | 25.2 µM | 1.94 µM | 5.27 µM | 1.46 µM | 2.77 µM
13 | COc1ccc(/C=C/C(=O)Oc2cc(O)cc(O)c2)cc1 |  | > 100 µM |  | 37.3 µM |  | > 100 µM |  | 39.5 µM |  | 76.1 µM |  | > 100 µM |  | 30.7 µM |  | > 100 µM |  | > 100 µM |  | > 100 µM
